From patent US8192962B2, “Processes for detecting toxic substances” (Daikin Industries, Ltd., priority 2001, dated 2012)

System: Genes belonging to other category
Test: DNA chip mRNA expression in yeast, genes belonging to other category (Table 9)
Assay type: cell-based, Saccharomyces cerevisiae S288C
Protocol: Yeast (Saccharomyces cerevisiae S288C (α SUC2mal mel gap2 CUP1)) were incubated at 25° C. on YPD medium (yeast extract 1%, polypepton 2%, glucose 2%). One of toxic chemical substances was added to the cells at logarithmic growth phase, and the cells were further incubated for two hours. Cells were cultured without any chemical substance in the same condition, and were used as control. Concentrations of the chemical substances were defined to inhibit the growth of the yeast but not lead to death.
After completion of the incubation, the culture was centrifuged to collect the cells. To the cells, sodium acetate buffer (50 mM sodium acetate, 10 mM EDTA, 1% SDS) was added, and the mixture was shaken at 65° C. for five minutes, followed by returning to room temperature, and obtaining the supernatant, of which the procedures were repeated two times. To the supernatant, ½ amount of a solution of phenol/chloroform was added, and the mixture was centrifuged to give a supernatant, which was added with an equal amount of chloroform, and the mixture was centrifuged to give a supernatant. To the supernatant, an equal amount of isopropanol containing 0.3 M sodium acetate was added, and the mixture was allowed to stand at room temperature for 30 minutes, after which the mixture was centrifuged to give a sediment of the whole RNAs. Seventy % ethanol was added to the sediment, and the mixture was again centrifuged to give a sediment, which was then dried and dissolved in water. mRNA was isolated from the whole RNAs as followings. In view of the fact that a poly A chain is attached to the 3′ terminus of mRNA, a polynucleotide having a poly T structure which was immobilized on the surface of latex beads was used to trap the mRNA, and then the mRNA was washed and eluted with spine column (Oligotex-dT30<Super>mRNA Purification Kit, Takara). Reverse transcription of the mRNA was conducted with a reverse transcriptase (Super Script II Reverse Transcriptase; catalogue No. 18064-014, GibcoBRL) using fluorescence-labeled nucleotides to give cDNAs that were introduced with Cy3-dUTP or Cy5-dUTP during the reverse transcription.
The labeled cDNAs were dissolved in TE buffer (10mM Tris-HCl/1 mM EDTA, pH8.0), and the solution was dropped on the DNA chip containing the whole genes of yeast (DNA Chip Research Inc. Japan) so that the cDNAs were hybridized on the DNA chip at 65° C. for over 12 hours. The fluoresces intensity of the DNA chip was read with a scanner, and the ratio relative to the fluorescence intensity resulting from the absence of chemical substance was estimated as the following, which is shown in Tables 1 to 9: […]

For `COc1cc(CNC(=O)CCCCC=CC(C)C)ccc1O` [(12), 8-methyl-N-vanillyl-6-nonenamide], the “The level of expressed mRNA in the presence of chemical substance/The level of expressed mRNA in the absence of chemical substance” value (yeast gene YJL116C) was 1.1, the “The level of expressed mRNA in the presence of chemical substance/The level of expressed mRNA in the absence of chemical substance” value (yeast gene YJL164C) was 1.0 and the “The level of expressed mRNA in the presence of chemical substance/The level of expressed mRNA in the absence of chemical substance” value (yeast gene YJL210W) was 1.0. For the same compound, the “The level of expressed mRNA in the presence of chemical substance/The level of expressed mRNA in the absence of chemical substance” value (yeast gene YJR004C) was 0.8, the “The level of expressed mRNA in the presence of chemical substance/The level of expressed mRNA in the absence of chemical substance” value (yeast gene YJR049C) was 1.0 and the “The level of expressed mRNA in the presence of chemical substance/The level of expressed mRNA in the absence of chemical substance” value (yeast gene YJR086W) was 0.8. For the same compound, the “The level of expressed mRNA in the presence of chemical substance/The level of expressed mRNA in the absence of chemical substance” value (yeast gene YJR091C) was 0.8, the “The level of expressed mRNA in the presence of chemical substance/The level of expressed mRNA in the absence of chemical substance” value (yeast gene YKL008C) was 1.5 and the “The level of expressed mRNA in the presence of chemical substance/The level of expressed mRNA in the absence of chemical substance” value (yeast gene YKL013C) was 0.7. The “The level of expressed mRNA in the presence of chemical substance/The level of expressed mRNA in the absence of chemical substance” value (yeast gene YKL039W) was 0.9, the “The level of expressed mRNA in the presence of chemical substance/The level of expressed mRNA in the absence of chemical substance” value (yeast gene YKL041W) was 0.8 and the “The level of expressed mRNA in the presence of chemical substance/The level of expressed mRNA in the absence of chemical substance” value (yeast gene YKL093W) was 0.9. For the same compound, the “The level of expressed mRNA in the presence of chemical substance/The level of expressed mRNA in the absence of chemical substance” value (yeast gene YKL096W) was 0.3, the “The level of expressed mRNA in the presence of chemical substance/The level of expressed mRNA in the absence of chemical substance” value (yeast gene YKL097W-A) was 0.7 and the “The level of expressed mRNA in the presence of chemical substance/The level of expressed mRNA in the absence of chemical substance” value (yeast gene YKL117W) was 1.0. The “The level of expressed mRNA in the presence of chemical substance/The level of expressed mRNA in the absence of chemical substance” value (yeast gene YKL139W) was 0.8, the “The level of expressed mRNA in the presence of chemical substance/The level of expressed mRNA in the absence of chemical substance” value (yeast gene YKL165C) was 2.4 and the “The level of expressed mRNA in the presence of chemical substance/The level of expressed mRNA in the absence of chemical substance” value (yeast gene YKL193C) was 0.9. For the same compound, the “The level of expressed mRNA in the presence of chemical substance/The level of expressed mRNA in the absence of chemical substance” value (yeast gene YKR014C) was 1.1, the “The level of expressed mRNA in the presence of chemical substance/The level of expressed mRNA in the absence of chemical substance” value (yeast gene YKR102W) was 0.8 and the “The level of expressed mRNA in the presence of chemical substance/The level of expressed mRNA in the absence of chemical substance” value (yeast gene YLR078C) was 1.0. For the same compound, the “The level of expressed mRNA in the presence of chemical substance/The level of expressed mRNA in the absence of chemical substance” value (yeast gene YLR080W) was 0.8, the “The level of expressed mRNA in the presence of chemical substance/The level of expressed mRNA in the absence of chemical substance” value (yeast gene YLR093C) was 1.0 and the “The level of expressed mRNA in the presence of chemical substance/The level of expressed mRNA in the absence of chemical substance” value (yeast gene YLR118C) was 1.0. For the same compound, the “The level of expressed mRNA in the presence of chemical substance/The level of expressed mRNA in the absence of chemical substance” value (yeast gene YLR120C) was 1.6, the “The level of expressed mRNA in the presence of chemical substance/The level of expressed mRNA in the absence of chemical substance” value (yeast gene YLR136C) was 1.3 and the “The level of expressed mRNA in the presence of chemical substance/The level of expressed mRNA in the absence of chemical substance” value (yeast gene YLR178C) was 2.2. The “The level of expressed mRNA in the presence of chemical substance/The level of expressed mRNA in the absence of chemical substance” value (yeast gene YLR250W) was 1.0, the “The level of expressed mRNA in the presence of chemical substance/The level of expressed mRNA in the absence of chemical substance” value (yeast gene YLR251W) was 0.8 and the “The level of expressed mRNA in the presence of chemical substance/The level of expressed mRNA in the absence of chemical substance” value (yeast gene YLR327C) was 1.4. For the same compound, the “The level of expressed mRNA in the presence of chemical substance/The level of expressed mRNA in the absence of chemical substance” value (yeast gene YLR340W) was 0.9, the “The level of expressed mRNA in the presence of chemical substance/The level of expressed mRNA in the absence of chemical substance” value (yeast gene YLR356W) was 1.5 and the “The level of expressed mRNA in the presence of chemical substance/The level of expressed mRNA in the absence of chemical substance” value (yeast gene YLR362W) was 0.8. The “The level of expressed mRNA in the presence of chemical substance/The level of expressed mRNA in the absence of chemical substance” value (yeast gene YLR391W) was 1.0, the “The level of expressed mRNA in the presence of chemical substance/The level of expressed mRNA in the absence of chemical substance” value (yeast gene YLR429W) was 1.1 and the “The level of expressed mRNA in the presence of chemical substance/The level of expressed mRNA in the absence of chemical substance” value (yeast gene YMR004W) was 1.0. For the same compound, the “The level of expressed mRNA in the presence of chemical substance/The level of expressed mRNA in the absence of chemical substance” value (yeast gene YMR053C) was 0.9, the “The level of expressed mRNA in the presence of chemical substance/The level of expressed mRNA in the absence of chemical substance” value (yeast gene YMR091C) was 0.8 and the “The level of expressed mRNA in the presence of chemical substance/The level of expressed mRNA in the absence of chemical substance” value (yeast gene YMR092C) was 0.9. The “The level of expressed mRNA in the presence of chemical substance/The level of expressed mRNA in the absence of chemical substance” value (yeast gene YMR094W) was 0.9, the “The level of expressed mRNA in the presence of chemical substance/The level of expressed mRNA in the absence of chemical substance” value (yeast gene YMR104C) was 1.0 and the “The level of expressed mRNA in the presence of chemical substance/The level of expressed mRNA in the absence of chemical substance” value (yeast gene YMR219W) was 1.5.
